Counter-ions that a name gives are not always drawn.
Assays:
FAAH = target: T1, FAAH (Homo sapiens, UniProt O00519); assay: Screening for an FAAH activity-inhibiting substance with human bladder epithelial cancer-derived cell line 5637 cells (IC50); format: cell-based; settings: FAAH activity in human bladder epithelial cancer-derived 5637 cells, 37° C., 30 minutes
T1 construct: host or cells: 5637 human bladder epithelial cancer-derived cells, not transfected
T1 sequence (O00519 1-579): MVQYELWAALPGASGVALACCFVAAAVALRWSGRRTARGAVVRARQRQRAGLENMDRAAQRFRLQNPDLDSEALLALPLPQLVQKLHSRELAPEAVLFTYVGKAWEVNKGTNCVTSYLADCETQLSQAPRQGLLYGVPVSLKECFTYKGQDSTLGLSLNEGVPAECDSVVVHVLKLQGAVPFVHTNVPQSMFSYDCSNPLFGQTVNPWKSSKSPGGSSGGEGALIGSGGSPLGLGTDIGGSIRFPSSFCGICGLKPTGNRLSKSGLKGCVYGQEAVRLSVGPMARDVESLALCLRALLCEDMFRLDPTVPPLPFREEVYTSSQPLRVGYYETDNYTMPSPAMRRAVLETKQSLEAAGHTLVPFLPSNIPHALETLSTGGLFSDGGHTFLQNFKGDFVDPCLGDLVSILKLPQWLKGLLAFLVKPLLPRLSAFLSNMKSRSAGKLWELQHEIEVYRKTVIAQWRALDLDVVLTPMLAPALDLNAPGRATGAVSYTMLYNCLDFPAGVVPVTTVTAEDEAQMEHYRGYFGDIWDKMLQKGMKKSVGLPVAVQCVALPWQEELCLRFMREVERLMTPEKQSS
Procedure: Screening for an FAAH Activity-Inhibiting Substance with a Human Bladder Epithelial Cancer-Derived Cell
(1) Screening for an FAAH Activity Inhibiting Substance
Human bladder epithelial cancer-derived cell line 5637 cells (HTB-9; ATCC) were seeded on a 48-well cell culture plate in an amount of 1×10^5 cell/well, using 10% fetal bovine serum (HyClone)-containing RPMI1640 medium (Invitrogen Corporation). After incubated at 37° C. for 12 hours or longer, the cells were washed with 400 μl/well of a buffer (Hank's Balanced Salt Solution, 20 mM Hepes-NaOH (pH 7.4)). A test substance dissolved in DMSO was added to a substrate solution (the above buffer containing 3 μCi/ml radiolabeled anandamide (Anandamide [ethanolamine 1-^3H]) and 10 μM anandamide) so as to have a concentration from 0.003 nM to 30 nM. As a control, DMSO alone was added. 100 μl/well of the substrate solution was added to the above cells, and incubated in a CO2 incubator at 37° C. for 30 minutes. Next, the cell culture plate was transferred onto ice, and the substrate solution was removed by suction; and 75 μl/well of a cytolytic solution (the above buffer containing 0.5% Triton X-100, and 10 μM of FAAH-inhibitory activity-having compound, 3′-carbamoylbiphenyl-3-yl ester (URB597; Cayman chemical; Kathuria et al., Nature Med., Vol. 9, pp. 76-81, 2003)) was added thereto, followed by stirring. The resulting cell lysate in every well was individually transferred into a 1.5 ml sample tube, to which was added 150 μl of 1:1 (ratio by volume) chloroform/methanol solution, followed by vortexing. This was centrifuged (15000 rpm, 2 minutes), whereby the decomposed product, ethanolamine (ethanolamine 1-^3H) was separated in the upper layer (water/methanol layer) and the unreacted radiolabeled anandamide was in the lower layer (chloroform layer). 25 μl of the upper layer was transferred into a 96-well organic solvent-resistant white microplate (PicoPlate-96; Perkin Elmer, Inc.), 150 μl of Microscint-20 (Perkin Elmer, Inc.) was added thereto, and this was measured with a microplate scintillation counter (TopCount™; Beckman Coulter, Inc.). As compared with the control, the substance that gave a decreased value was selected as an FAAH activity-inhibiting substance.
(2) Measurement of the IC50 Value of the FAAH Activity Inhibiting Substance
The compound dissolved in DMSO to have a concentration of 10 mM was dissolved in the substrate solution so as to have a varying concentration from 0.003 nM to 30 nM. According to the method mentioned above, the compound was analyzed for its influence on FAAH activity. As a negative control, DMSO was used. As a positive control, URB597 was added to the substrate solution to have a concentration of 10 μM. Based on the measured value of the positive control, 0%, and on the measured value of the negative control, 100%, the IC50 value of the test substance was obtained. Furthermore, Ex represents Example No. as denoted below.

[1] = system: cyclophosphamide (CPA)-induced urinary frequency; assay: Effect of compound on cyclophosphamide (CPA)-induced urinary frequency in a rat (effective bladder capacity); format: in vivo; settings: CPA (100 mg/kg i.p.)-treated Wistar female rats, p.o.; for effective dose in oral administration: effective bladder capacity over 1 hour
Procedure: Effect of Compound on Cyclophosphamide (CPA)-Induced Urinary Frequency in a Rat
Compounds were tested for their bladder irritation-relieving effect, using pathologic models. It is known that systemic administration of cyclophosphamide (CPA) converts the compound into its metabolite, acrolein, and, as existing in urine, this injures the bladder mucosa. In rats, CPA administration induces bladder pain or urinary frequency accompanied by hemorrhagic cystitis, and therefore using such rats, it is possible to evaluate the potency of drug for these symptoms. In this experiment, used were 9-week-old Wistar female rats (Charles River). CPA (100 mg/kg) was intraperitoneally administered to the rats, and after 2 days, the rats were tested. A test compound was orally administered (p.o.) to the rats; and after 15 minutes, distilled water (30 ml/kg) was forcedly orally administered thereto. The rats were put in a metabolic cage, and the weight of their urine was continuously measured for 1 hour. The overall urine amount was divided by the overall urination frequency, and the effective bladder capacity was thus calculated. […] In oral administration, the effective doses of compounds of Examples 155 and 210 were 10 mg/kg and 3 mg/kg, respectively.

O=C(Nc1cccnc1)N1CCN(Cc2ccnc(OCCC3CCCCC3)c2)CC1 [Example 30, 4-{[2-(2-cyclohexylethoxy)pyridin-4-yl]methyl}-N-pyridin-3-ylpiperazine-1-carboxamide trihydrochloride]
IC50 (FAAH): 0.28 nM

O=C(Nc1cnccn1)N1CCN(C(=O)c2ccnc(OCCC3CCCCC3)c2)CC1 [Example 38, 4-[2-(2-cyclohexylethoxy)isonicotinoyl]-N-pyrazin-2-ylpiperazine-1-carboxamide]
IC50 (FAAH): 0.7 nM

O=C(Nc1ncccn1)N1CCN(C(=O)c2cccc(OCCC3CCCCC3)c2)CC1 [Example 155]
IC50 (FAAH): 0.54 nM | effect on effective bladder capacity / urinary frequency [1]: increased the reduced effective bladder capacity, and relieved the condition of urinary frequency | effective dose in oral administration [1]: 10 mg/kg

O=C(Nc1cnccn1)N1CCN(C(=O)c2cccc(OCCC3CCCCC3)c2)CC1 [Example 210]
IC50 (FAAH): 0.16 nM | effect on effective bladder capacity / urinary frequency [1]: increased the reduced effective bladder capacity, and relieved the condition of urinary frequency | effective dose in oral administration [1]: 3 mg/kg

CN(CCC1CCCCC1)c1ccc(C(=O)N2CCN(C(=O)Nc3cccnc3)CC2)cc1 [Example 334]
IC50 (FAAH): 0.18 nM

COCC(=O)NC(=O)N1CCN(Cc2cccc(OCCC3CCCCC3)c2)CC1 [Example 439]
IC50 (FAAH): 0.43 nM

From patent US20110172230A1, “UREA COMPOUND OR SALT THEREOF” (priority 2006, published 2011)
